In ChEMBL document CHEMBL1138445, “Design and synthesis of potent inhibitors of cholesteryl ester transfer protein (CETP) exploiting a 1,2,3,4-tetrahydroquinoline platform” (Bioorg Med Chem Lett, 2009):

What was measured:
[1] = biological target: T1, Cholesteryl ester transfer protein (Homo sapiens) (UniProt P11597); assay: Inhibition of human plasma derived CETP relative to control; parameters: concentration or dose not given beside the values; settings: concentration not given here
T1 sequence (whole entry): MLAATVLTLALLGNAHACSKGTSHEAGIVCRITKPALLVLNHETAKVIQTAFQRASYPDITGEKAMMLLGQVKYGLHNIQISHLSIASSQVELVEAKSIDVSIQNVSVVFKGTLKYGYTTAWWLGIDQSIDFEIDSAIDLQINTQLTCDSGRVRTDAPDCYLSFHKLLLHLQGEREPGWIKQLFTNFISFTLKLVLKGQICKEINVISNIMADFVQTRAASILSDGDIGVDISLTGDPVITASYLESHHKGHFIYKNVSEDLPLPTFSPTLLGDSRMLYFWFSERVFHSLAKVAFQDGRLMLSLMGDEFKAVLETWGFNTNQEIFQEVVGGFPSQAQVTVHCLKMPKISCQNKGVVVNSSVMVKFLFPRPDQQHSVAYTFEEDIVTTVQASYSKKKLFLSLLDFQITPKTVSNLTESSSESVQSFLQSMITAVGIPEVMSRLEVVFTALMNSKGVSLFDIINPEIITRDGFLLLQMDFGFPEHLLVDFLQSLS

[2] = biological target: T2, Cholesteryl ester transfer protein (Homo sapiens, UniProt P11597); assay: Inhibition of human plasma derived CETP; format: cell-free
T2 sequence (P11597 whole entry): T1 sequence (whole entry)

Cytochrome P450 2D6 = Cytochrome P450 2D6 (Homo sapiens, UniProt P10635); assay: Inhibition of CYP2D6 from human liver microsomes; format: ADME
Chain of Cytochrome P450 2D6 (P10635 whole entry): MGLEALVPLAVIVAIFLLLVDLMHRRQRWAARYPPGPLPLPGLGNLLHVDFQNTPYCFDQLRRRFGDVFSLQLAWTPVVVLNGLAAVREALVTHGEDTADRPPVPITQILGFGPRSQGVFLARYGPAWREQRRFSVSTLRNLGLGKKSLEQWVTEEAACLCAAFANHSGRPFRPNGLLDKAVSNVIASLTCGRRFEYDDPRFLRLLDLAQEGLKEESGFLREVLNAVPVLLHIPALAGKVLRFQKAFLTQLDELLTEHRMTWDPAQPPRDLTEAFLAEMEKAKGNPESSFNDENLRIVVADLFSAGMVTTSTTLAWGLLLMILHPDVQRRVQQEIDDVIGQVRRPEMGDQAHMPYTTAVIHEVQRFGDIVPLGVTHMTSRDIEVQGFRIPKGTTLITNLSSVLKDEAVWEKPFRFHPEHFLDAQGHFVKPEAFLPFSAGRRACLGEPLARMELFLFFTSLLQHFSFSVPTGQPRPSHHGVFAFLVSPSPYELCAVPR

[3] = Cmax in Sprague-Dawley rat at 10 mg/kg, po; format: ADME, organism-based; parameters: dose 10 mg/kg, route oral; settings: in vivo
[4] = Tmax in Sprague-Dawley rat at 10 mg/kg, po; format: ADME, organism-based; parameters: dose 10 mg/kg, route oral; settings: in vivo
[5] = Half life in Sprague-Dawley rat at 10 mg/kg, po; format: ADME, organism-based; parameters: dose 10 mg/kg, route oral; settings: in vivo
[6] = AUC in Sprague-Dawley rat at 10 mg/kg, po; format: ADME, organism-based; parameters: dose 10 mg/kg, route oral; settings: plasma
[7] = Oral bioavailability in Sprague-Dawley rat at 10 mg/kg; format: ADME, organism-based; settings: in vivo
[8] = Plasma clearance in Sprague-Dawley rat at 2 mg/kg, iv; format: ADME, organism-based; parameters: dose 2 mg/kg, route intravenous
[9] = Volume of distribution at steady state in Sprague-Dawley rat at 2 mg/kg, iv; format: ADME, organism-based; parameters: dose 2 mg/kg, route intravenous; settings: in vivo, read-out: Vdss
[10] = Cmax in Sprague-Dawley rat at 2 mg/kg, iv; format: ADME, organism-based; parameters: dose 2 mg/kg, route intravenous; settings: in vivo
[11] = Half life in Sprague-Dawley rat at 2 mg/kg, iv; format: ADME, organism-based; parameters: dose 2 mg/kg, route intravenous; settings: in vivo
[12] = AUC in Sprague-Dawley rat at 2 mg/kg, iv; format: ADME, organism-based; parameters: dose 2 mg/kg, route intravenous; settings: plasma
[13] = Permeability across human Caco-2 cell; format: ADME, cell-based; settings: read-out: permeability
[14] = Metabolic stability in human liver microsomes assessed as half life; format: ADME, Microsome
Cytochrome P450 2C9 = Cytochrome P450 2C9 (Homo sapiens, UniProt P11712); assay: Inhibition of CYP2C9 from human liver microsomes; format: ADME
Chain of Cytochrome P450 2C9 (P11712 whole entry): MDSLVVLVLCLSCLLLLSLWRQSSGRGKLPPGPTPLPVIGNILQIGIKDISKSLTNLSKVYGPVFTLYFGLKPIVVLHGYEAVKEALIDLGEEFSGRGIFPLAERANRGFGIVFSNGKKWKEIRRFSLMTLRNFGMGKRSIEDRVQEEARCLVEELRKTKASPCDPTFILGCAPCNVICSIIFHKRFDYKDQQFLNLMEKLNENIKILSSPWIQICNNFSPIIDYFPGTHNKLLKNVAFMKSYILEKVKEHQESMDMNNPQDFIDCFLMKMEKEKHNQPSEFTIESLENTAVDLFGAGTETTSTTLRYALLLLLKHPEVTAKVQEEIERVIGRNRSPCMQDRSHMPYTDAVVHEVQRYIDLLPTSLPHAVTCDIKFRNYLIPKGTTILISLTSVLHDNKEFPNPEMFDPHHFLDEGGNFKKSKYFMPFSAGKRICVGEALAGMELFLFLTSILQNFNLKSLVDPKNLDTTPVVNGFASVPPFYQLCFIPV

Cytochrome P450 2A6 = biological target: T3, Cytochrome P450 2A6 (Homo sapiens, UniProt P11509); assay: Inhibition of CYP2A6 from human liver microsomes; format: ADME
T3 sequence (P11509 whole entry): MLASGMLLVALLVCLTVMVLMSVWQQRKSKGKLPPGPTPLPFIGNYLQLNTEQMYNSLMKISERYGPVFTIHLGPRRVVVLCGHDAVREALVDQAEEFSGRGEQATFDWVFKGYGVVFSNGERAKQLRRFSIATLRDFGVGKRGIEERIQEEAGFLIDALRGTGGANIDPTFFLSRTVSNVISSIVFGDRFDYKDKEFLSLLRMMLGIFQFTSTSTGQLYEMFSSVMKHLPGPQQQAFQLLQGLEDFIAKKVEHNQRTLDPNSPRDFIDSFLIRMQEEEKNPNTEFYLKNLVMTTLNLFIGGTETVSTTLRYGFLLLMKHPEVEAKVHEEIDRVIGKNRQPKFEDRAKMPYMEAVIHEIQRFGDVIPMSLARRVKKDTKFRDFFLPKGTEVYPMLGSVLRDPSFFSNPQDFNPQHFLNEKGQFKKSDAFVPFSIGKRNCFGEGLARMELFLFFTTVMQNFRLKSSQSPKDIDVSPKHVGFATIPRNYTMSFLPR

Cytochrome P450 2C19 = Cytochrome P450 2C19 (Homo sapiens, UniProt P33261); assay: Inhibition of CYP2C19 from human liver microsomes; format: ADME
Chain of Cytochrome P450 2C19 (P33261 whole entry): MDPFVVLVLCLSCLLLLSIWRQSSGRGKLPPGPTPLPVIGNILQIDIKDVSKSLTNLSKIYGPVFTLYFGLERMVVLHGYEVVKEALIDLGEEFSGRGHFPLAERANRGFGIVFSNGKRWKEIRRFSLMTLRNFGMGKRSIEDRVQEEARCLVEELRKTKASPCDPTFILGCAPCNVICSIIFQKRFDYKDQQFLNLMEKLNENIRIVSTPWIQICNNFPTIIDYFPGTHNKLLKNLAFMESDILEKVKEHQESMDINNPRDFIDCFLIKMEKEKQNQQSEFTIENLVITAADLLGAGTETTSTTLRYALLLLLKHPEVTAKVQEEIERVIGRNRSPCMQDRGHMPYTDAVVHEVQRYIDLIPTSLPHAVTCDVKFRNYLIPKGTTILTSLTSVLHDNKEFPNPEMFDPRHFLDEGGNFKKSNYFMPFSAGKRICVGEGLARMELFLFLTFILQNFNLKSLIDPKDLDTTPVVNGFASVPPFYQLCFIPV

Cytochrome P450 2E1 = Cytochrome P450 2E1 (Homo sapiens, UniProt P05181); assay: Inhibition of CYP2E1 from human liver microsomes; format: ADME
Chain of Cytochrome P450 2E1 (P05181 whole entry): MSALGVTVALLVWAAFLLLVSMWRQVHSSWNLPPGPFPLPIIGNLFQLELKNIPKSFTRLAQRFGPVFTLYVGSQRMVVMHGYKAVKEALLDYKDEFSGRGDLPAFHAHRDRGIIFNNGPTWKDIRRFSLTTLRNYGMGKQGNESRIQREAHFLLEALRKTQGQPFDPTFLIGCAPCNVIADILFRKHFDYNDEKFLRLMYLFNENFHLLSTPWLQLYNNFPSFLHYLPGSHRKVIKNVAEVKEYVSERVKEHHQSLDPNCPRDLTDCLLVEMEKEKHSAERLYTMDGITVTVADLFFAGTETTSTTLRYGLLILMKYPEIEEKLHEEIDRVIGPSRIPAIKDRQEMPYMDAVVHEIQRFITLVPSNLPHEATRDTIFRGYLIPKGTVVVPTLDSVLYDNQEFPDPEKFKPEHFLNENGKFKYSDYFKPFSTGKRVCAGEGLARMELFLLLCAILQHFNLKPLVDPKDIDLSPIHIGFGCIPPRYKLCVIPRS

Cytochrome P450 1A2 = biological target: T4, Cytochrome P450 1A2 (Homo sapiens, UniProt P05177); assay: Inhibition of CYP1A2 from human liver microsomes; format: ADME
T4 sequence (P05177 whole entry): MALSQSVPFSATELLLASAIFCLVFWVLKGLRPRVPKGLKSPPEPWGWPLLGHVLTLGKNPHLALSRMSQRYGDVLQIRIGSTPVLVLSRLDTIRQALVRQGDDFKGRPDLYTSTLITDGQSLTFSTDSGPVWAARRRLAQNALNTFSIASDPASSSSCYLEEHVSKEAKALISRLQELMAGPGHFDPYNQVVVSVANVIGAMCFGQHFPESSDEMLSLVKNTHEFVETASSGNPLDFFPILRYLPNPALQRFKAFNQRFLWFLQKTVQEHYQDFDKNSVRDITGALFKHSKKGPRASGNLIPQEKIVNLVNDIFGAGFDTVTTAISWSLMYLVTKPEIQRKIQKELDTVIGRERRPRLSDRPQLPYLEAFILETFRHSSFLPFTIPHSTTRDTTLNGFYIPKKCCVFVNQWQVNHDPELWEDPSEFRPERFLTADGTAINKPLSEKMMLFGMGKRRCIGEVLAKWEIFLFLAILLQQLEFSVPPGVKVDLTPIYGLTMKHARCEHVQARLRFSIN

Cytochrome P450 3A4 = Cytochrome P450 3A4 (Homo sapiens, UniProt P08684); assay: Inhibition of CYP3A4 from human liver microsomes; format: ADME
Chain of Cytochrome P450 3A4 (P08684 whole entry): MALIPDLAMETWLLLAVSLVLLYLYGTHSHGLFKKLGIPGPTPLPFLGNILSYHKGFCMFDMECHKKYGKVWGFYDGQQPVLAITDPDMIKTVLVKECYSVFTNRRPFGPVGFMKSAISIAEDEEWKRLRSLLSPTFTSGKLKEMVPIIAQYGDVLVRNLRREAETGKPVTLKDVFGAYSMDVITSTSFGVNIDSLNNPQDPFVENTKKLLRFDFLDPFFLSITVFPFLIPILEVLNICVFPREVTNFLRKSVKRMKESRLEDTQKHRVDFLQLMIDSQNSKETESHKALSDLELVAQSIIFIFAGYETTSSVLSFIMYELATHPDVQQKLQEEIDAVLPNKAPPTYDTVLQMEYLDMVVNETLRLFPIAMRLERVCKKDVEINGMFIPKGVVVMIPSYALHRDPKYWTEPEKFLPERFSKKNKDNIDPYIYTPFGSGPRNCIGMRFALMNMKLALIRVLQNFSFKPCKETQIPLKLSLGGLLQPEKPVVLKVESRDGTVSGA

Compound C[C@@H](O)CN1c2cccc(-c3cccc(OC(F)(F)F)c3)c2CC[C@@H]1c1cccc(OC(F)(F)F)c1 has an inhibition [1] of 68% and an IC50 [2] of 125 nM.
Compound CC(C)Oc1cccc(-c2cccc3c2CCC(c2cccc(OC(F)(F)C(F)F)c2)N3CC(O)C(F)(F)F)c1 (stereo not given) has an inhibition [1] of 55% and an IC50 [2] of 345 nM.
OC(CN1c2cccc(-c3ccc(OC(F)(F)F)cc3)c2CCC1c1cccc(OC(F)(F)C(F)F)c1)C(F)(F)F (single isomer, unassigned; diastereomer 1) showed an inhibition [1] of 85% and an IC50 [2] of 500 nM.
Compound OC(CN1c2cccc(-c3cccnc3)c2CCC1c1cccc(OC(F)(F)C(F)F)c1)C(F)(F)F (single isomer, unassigned; diastereomer 1) has an inhibition [1] of 47% and an IC50 [2] of over 3000 nM.
For OC(CN1c2cccc(-c3cccs3)c2CCC1c1cccc(OC(F)(F)C(F)F)c1)C(F)(F)F (single isomer, unassigned; diastereomer 1), the inhibition [1] was 63% and the IC50 [2] was 317 nM.
With CC(C)c1cccc(-c2cccc3c2CCC(c2cccc(OC(F)(F)C(F)F)c2)N3CC(O)C(F)(F)F)c1 (single isomer, unassigned; diastereomer 1) the inhibition [1] was 63% and the IC50 [2] was 277 nM.
In the case of O[C@@H](CN1c2cccc(-c3cccc(OC(F)(F)F)c3)c2CC[C@@H]1c1cccc(OC(F)(F)F)c1)C(F)(F)F [TETRAHYDROQUINOLINE A], the Activity (Cytochrome P450 2D6) is reported as “Not Active”, the inhibition [1] is reported as 85% and the IC50 [2] is reported as 39 nM. It also gave a Cmax [3] of 950 ng/mL, a Tmax [4] of 6 h and a half-life [5] of 28 h. It also gave an AUC [6] of 31300 ng·h/mL, a bioavailability [7] of 31% and a clearance [8] of 1.8 mL/min/kg. The Vd [9] was 0.36 L/kg, the Cmax [10] was 31400 ng/mL and the half-life [11] was 17.4 h. For the same compound, the AUC [12] was 18900 ng·h/mL, the Papp [13] was 4.7 ×10⁻⁶ cm/s and the half-life [14] was over 2.13 h. For the same compound, the Activity (Cytochrome P450 2C9) was “Not Active”, the Activity (Cytochrome P450 2A6) was “Not Active” and the Activity (Cytochrome P450 2C19) was “Not Active”. The Activity (Cytochrome P450 2E1) was “Not Active”, the Activity (Cytochrome P450 1A2) was “Not Active” and the Activity (Cytochrome P450 3A4) was “Not Active”.
O[C@H](CN1c2cccc(-c3cccc(OC(F)(F)F)c3)c2CC[C@@H]1c1cccc(OC(F)(F)F)c1)C(F)(F)F [TETRAHYDROQUINOLINE B] showed an inhibition [1] of 62% and an IC50 [2] of over 3000 nM.
